Values of other authors in patent US20080057142A1, “COMPOSITIONS AND METHODS FOR WEIGHT-LOSS AND WEIGHT-LOSS MAINTENANCE IN DAYTIME AND NIGHTTIME FORMULATION” (priority 2005, published 2008).

Settings: EGCG, but not related catechins

epigallocatechin-3-gallate [EGCG]
body weight: reduced body weight | food intake: significantly reduced food intake
